“And” between values parts separate entries of the source, which are not always exact repeats. Equal values may be shown once.
Assay: Compound 2 and metabolites in rat plasma, 50 mg/kg PO QD×10
Type: in vivo
Settings: for Average Concentration: rat plasma
Protocol: The proposed metabolite pathway was determined in vitro, and levels of potential metabolites were measured by LC/MS-MS in rat plasma remaining from the dose rising 10-day repeat dose study in rats. Six potential metabolites were quantified in the low (50 mg/kg) single dose rats. […] Rats were rotated between timepoints to form a composite PK curve. […] A 100 μL aliquot of the supernatant was transferred to the sample plate and mixed with 100 μL of water, then the plate was shaken at 800 rpm for 10 min. 0.5-2 μL supernatant was then injected into a Triple Quad 6500+ for LC-MS/MS analysis. The standard curve was generated at 1-3000 ng/mL for the compounds in rat plasma (EDTA-K2).
The male and female PK parameters were averaged together since there was <2-fold variation between the genders. All values deemed below the level of quantification (BLQ) were excluded from the PK parameters calculations.

[1] = Compound 2 50 mg/kg PO QD×1, 1 h, 50 mg/kg
[2] = Compound 2 50 mg/kg PO QD×1, 2 h, 50 mg/kg
[3] = Compound 2 50 mg/kg PO QD×1, 4 h, 50 mg/kg
[4] = Compound 2 50 mg/kg PO QD×1, 8 h, 50 mg/kg
[5] = Compound 2 50 mg/kg PO QD×1, 24 h, 50 mg/kg
[6] = Compound 2 50 mg/kg PO QD×10, 1 h post tenth dose, 50 mg/kg
[7] = Compound 2 50 mg/kg PO QD×10, 2 h post tenth dose, 50 mg/kg
[8] = Compound 2 50 mg/kg PO QD×10, 4 h post tenth dose, 50 mg/kg
[9] = Compound 2 50 mg/kg PO QD×10, 8 h post tenth dose, 50 mg/kg
[10] = Compound 2 50 mg/kg PO QD×10, 24 h post tenth dose, 50 mg/kg
[11] = Compound 2 50 mg/kg PO QD×10, 48 h post tenth dose, 50 mg/kg
[12] = Compound 2 50 mg/kg PO QD×10, 72 h post tenth dose
[13] = Compound 2 50 mg/kg PO QD×10, 96 h post tenth dose
[14] = Day 1, of Compound 2 AUC0-24, rat, 50 mg/kg PO
[15] = Day 1, rat, Compound 2 50 mg/kg PO
[16] = Day 10, of Compound 2 AUC0-last, rat, 50 mg/kg PO QD×10
[17] = Day 10, rat, Compound 2 50 mg/kg PO QD×10
[18] = Compound 2 50 mg/kg PO QD×1, 1 h
[19] = Compound 2 50 mg/kg PO QD×1, 2 h
[20] = Compound 2 50 mg/kg PO QD×1, 4 h
[21] = Compound 2 50 mg/kg PO QD×1, 8 h
[22] = Compound 2 50 mg/kg PO QD×1, 24 h
[23] = Compound 2 50 mg/kg PO QD×10, 1 h post tenth dose
[24] = Compound 2 50 mg/kg PO QD×10, 2 h post tenth dose
[25] = Compound 2 50 mg/kg PO QD×10, 4 h post tenth dose
[26] = Compound 2 50 mg/kg PO QD×10, 8 h post tenth dose
[27] = Compound 2 50 mg/kg PO QD×10, 24 h post tenth dose
[28] = Compound 2 50 mg/kg PO QD×10, 48 h post tenth dose
[29] = after single (first) 50 mg/kg PO dose of Compound 2
[30] = repeat 10 day administration of Compound 2, 50 mg/kg PO

| SMILES | calculated concentration in rat plasma (individual rats) [1] | calculated concentration in rat plasma (individual rats) [2] | calculated concentration in rat plasma (individual rats) [3] | calculated concentration in rat plasma (individual rats) [4] | calculated concentration in rat plasma (individual rats) [6] | calculated concentration in rat plasma (individual rats) [7] | calculated concentration in rat plasma (individual rats) [8] | calculated concentration in rat plasma (individual rats) [9] | calculated concentration in rat plasma (individual rats) [10] | % of Parent [14] [%] | AUC0-24 [15] [ng·h/mL] | % of Parent [16] [%] | AUC0-last [17] [ng·h/mL] | Average Concentration [18] [ng/mL] | Average Concentration [19] [ng/mL] | Average Concentration [20] [ng/mL] | Average Concentration [21] [ng/mL] | Average Concentration [22] | Average Concentration [23] [ng/mL] | Average Concentration [24] [ng/mL] | other results |
| --- | --- | --- | --- | --- | --- | --- | --- | --- | --- | --- | --- | --- | --- | --- | --- | --- | --- | --- | --- | --- | --- |
| CCn1c(C#CCNc2ccccc2)cc2cc(CNCc3ccccc3)ccc21 [Compound 4, 1-Anilino-3-[5-(benzylaminomethyl)-1-ethyl-1H-indol-2-yl]-2-propyne] | 52.4 ng/mL and 34.7 ng/mL and 28.5 ng/mL and 58.3 ng/mL and 44.0 ng/mL and 31.4 ng/mL | 98.8 ng/mL and 56.5 ng/mL and 57.4 ng/mL and 65.7 ng/mL and 58.2 ng/mL and 53.3 ng/mL | 72.2 ng/mL and 73.2 ng/mL and 96.5 ng/mL and 63.9 ng/mL and 69.0 ng/mL and 74.3 ng/mL | 86.8 ng/mL and 66.7 ng/mL and 79.4 ng/mL and 71.8 ng/mL and 72.4 ng/mL and 63.5 ng/mL | 48.8 ng/mL and 34.5 ng/mL and 45.1 ng/mL and 46.0 ng/mL and 64.9 ng/mL and 67.1 ng/mL | 42.8 ng/mL and 51.0 ng/mL and 62.7 ng/mL and 54.2 ng/mL and 59.7 ng/mL and 52.9 ng/mL | 66.1 ng/mL and 54.7 ng/mL and 73.4 ng/mL and 93.1 ng/mL and 83.9 ng/mL and 58.7 ng/mL | 53.2 ng/mL and 61.4 ng/mL and 69.2 ng/mL and 67.5 ng/mL and 73.1 ng/mL and 65.4 ng/mL | 17.1 ng/mL and 29.4 ng/mL and 19.7 ng/mL and 38.9 ng/mL and 40.7 ng/mL and 40.1 ng/mL | 1.6 | 1241 | 1.5 | 1620 | 41.55 | 64.98 | 74.85 | 73.43 | 17.88 ng/mL | 51.07 | 53.88 | calculated concentration in rat plasma (individual rats) [5]: 17.9 ng/mL and 11.4 ng/mL and 18.4 ng/mL and 24.0 ng/mL and 22.5 ng/mL and 13.1 ng/mL; calculated concentration in rat plasma (individual rats) [11]: BLQ and 1.97 ng/mL and 1.33 ng/mL and 4.63 ng/mL and 2.28 ng/mL and 2.67 ng/mL; calculated concentration in rat plasma (individual rats) [12]: BLQ; calculated concentration in rat plasma (individual rats) [13]: BLQ; Average Concentration [25]: 71.65 ng/mL; Average Concentration [26]: 64.97 ng/mL; Average Concentration [27]: 30.98 ng/mL; Average Concentration [28]: 2.58 ng/mL; Average Concentration [12]: BLQ; Average Concentration [13]: BLQ |
| CCn1c(C#CCNc2ccc(F)cc2)cc2cc(CNC)ccc21 [Compound 5, 3-{1-Ethyl-5-[(methylamino)methyl]-1H-indol-2-yl}-1-(p-fluorophenylamino)-2-propyne] | 576 ng/mL and 407 ng/mL and 342 ng/mL and 649 ng/mL and 486 ng/mL and 311 ng/mL | 1050 ng/mL and 561 ng/mL and 617 ng/mL and 665 ng/mL and 630 ng/mL and 572 ng/mL | 732 ng/mL and 850 ng/mL and 1120 ng/mL and 738 ng/mL and 774 ng/mL and 861 ng/mL | 941 ng/mL and 742 ng/mL and 901 ng/mL and 752 ng/mL and 872 ng/mL and 696 ng/mL | 532 ng/mL and 434 ng/mL and 580 ng/mL and 539 ng/mL and 753 ng/mL and 738 ng/mL | 513 ng/mL and 639 ng/mL and 761 ng/mL and 625 ng/mL and 671 ng/mL and 616 ng/mL | 789 ng/mL and 675 ng/mL and 859 ng/mL and 1010 ng/mL and 887 ng/mL and 701 ng/mL | 619 ng/mL and 737 ng/mL and 807 ng/mL and 812 ng/mL and 881 ng/mL and 772 ng/mL | 216 ng/mL and 376 ng/mL and 234 ng/mL and 486 ng/mL and 477 ng/mL and 484 ng/mL | 17.6 | 13840 | 18.1 | 19943 | 461.83 | 682.50 | 845.83 | 817.33 | 205.50 ng/mL | 596.00 | 637.50 | calculated concentration in rat plasma (individual rats) [5]: 218 ng/mL and 144 ng/mL and 208 ng/mL and 266 ng/mL and 246 ng/mL and 151 ng/mL; calculated concentration in rat plasma (individual rats) [11]: 6.57 ng/mL and 22.4 ng/mL and 13.6 ng/mL and 55.0 ng/mL and 27.3 ng/mL and 31.2 ng/mL; calculated concentration in rat plasma (individual rats) (Compound 2 50 mg/kg PO QD×10, 72 h post tenth dose, 50 mg/kg): 3.25 ng/mL and 2.30 ng/mL and BLQ (3×) and 17.3 ng/mL; calculated concentration in rat plasma (individual rats) (Compound 2 50 mg/kg PO QD×10, 96 h post tenth dose, 50 mg/kg): BLQ (5×) and 1.27 ng/mL; AUC0-24 [29]: 13,840 ng·h/mL; percent of the parent Compound 2 AUC0-24 [29]: 17.6%; Average Concentration [25]: 820.17 ng/mL; Average Concentration [26]: 771.33 ng/mL; Average Concentration [27]: 378.83 ng/mL; Average Concentration [28]: 26.01 ng/mL; Average Concentration [12]: 7.62 ng/mL; Average Concentration [13]: 1.27 ng/mL; AUC0-last [30]: 19,943 ng·h/mL; percent of parent AUC0-last [30]: 18.1% |
| CCn1c(C#CCNc2ccc(F)cc2)cc2cc(CNC3CCOCC3)ccc21 [Compound 6, 3-{1-Ethyl-5-[(tetrahydro-2H-pyran-4-ylmino)methyl]-1H-indol-2-yl}-1-(p-fluorophenylamino)-2-propyne] | – | – | – | – | – | – | – | – | – | – | – | – | – | – | – | – | – | – | – | – | AUC0-24 (rat, in vivo, po, 50 mg/kg): 377 ng·h/mL; AUC0-last (rat, in vivo, po, 50 mg/kg): 389 ng·h/mL |
| CCn1c(C#CCNc2ccc(Cl)cc2)cc2cc(CNC3CCN(C)CC3)ccc21 [Compound 7, 1-(p-Chlorophenylamino)-3-{1-ethyl-5-[(1-methyl-4-piperidylamino)methyl]-1H-indol-2-yl}-2-propyne] | 1.44 ng/mL and 1.36 ng/mL and 1.19 ng/mL and 1.33 ng/mL and 1.49 ng/mL and 1.39 ng/mL | 4.12 ng/mL and 1.95 ng/mL and 1.67 ng/mL and 1.93 ng/mL and 1.81 ng/mL and 1.70 ng/mL | 2.46 ng/mL and 2.66 ng/mL and 2.27 ng/mL and 1.68 ng/mL and 1.81 ng/mL and 2.04 ng/mL | 3.52 ng/mL and 2.72 ng/mL and 2.19 ng/mL and 2.24 ng/mL and 2.20 ng/mL and 2.11 ng/mL | 1.25 ng/mL and 1.46 ng/mL and 1.42 ng/mL and 1.49 ng/mL and 1.92 ng/mL and 1.65 ng/mL | 1.81 ng/mL and 2.19 ng/mL and 1.99 ng/mL and 1.41 ng/mL and 1.79 ng/mL and 1.66 ng/mL | 2.46 ng/mL and 2.18 ng/mL and 2.20 ng/mL and 2.42 ng/mL and 2.00 ng/mL and 1.30 ng/mL | 2.31 ng/mL and 2.45 ng/mL and 2.79 ng/mL and 1.81 ng/mL and 2.20 ng/mL and 2.21 ng/mL | BLQ (3×) and 1.07 ng/mL and 1.06 ng/mL and 1.16 ng/mL | 0.0 | 16 | 0.0 | 28 | 1.37 | 2.20 | 2.15 | 2.50 | BLQ | 1.53 | 1.81 | calculated concentration in rat plasma (individual rats) [22]: BLQ; calculated concentration in rat plasma (individual rats) [28]: BLQ; calculated concentration in rat plasma (individual rats) [12]: BLQ; calculated concentration in rat plasma (individual rats) [13]: BLQ; Average Concentration [25]: 2.09 ng/mL; Average Concentration [26]: 2.30 ng/mL; Average Concentration [27]: 1.10 ng/mL; Average Concentration [28]: BLQ; Average Concentration [12]: BLQ; Average Concentration [13]: BLQ |

From US20230049952A1, “METHODS AND COMPOUNDS FOR RESTORING MUTANT P53 FUNCTION” (PMV Pharmaceuticals, Inc., priority 2020, published 2023)
